Test results as given in patent publication US10670605B2, “Cysteine reactive probes and uses thereof” (The Scripps Research Institute, priority 2015, dated 2020).
Blank lines part the entries; values can stand above or below the molecule they belong to.

What was measured:
Assay in all cases: Competitive isoTOP-ABPP in situ (fragment-treated cells)
Type in all cases: cell-based
[1] = target: T1, cysteines in MDA-MB-231 and Ramos cells (Homo sapiens, UniProt Q9NX18)
T1 sequence (Q9NX18 30-166): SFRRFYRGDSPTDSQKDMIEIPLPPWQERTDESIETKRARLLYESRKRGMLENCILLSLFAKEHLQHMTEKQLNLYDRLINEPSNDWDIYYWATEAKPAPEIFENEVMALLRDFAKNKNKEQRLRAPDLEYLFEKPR

[2] = target: T2, cysteines in MDA-MB-231 and Ramos cells (Homo sapiens, UniProt Q6ICB0)
T2 sequence (Q6ICB0 1-168): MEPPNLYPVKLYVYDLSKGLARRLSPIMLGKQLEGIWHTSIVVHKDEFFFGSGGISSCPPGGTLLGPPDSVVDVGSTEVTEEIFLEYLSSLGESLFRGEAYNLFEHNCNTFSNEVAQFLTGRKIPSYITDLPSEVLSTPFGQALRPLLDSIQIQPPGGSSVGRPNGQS

[3] = target: T3, cysteines in MDA-MB-231 and Ramos cells (Homo sapiens, UniProt P24468)
T3 sequence (P24468 1-414): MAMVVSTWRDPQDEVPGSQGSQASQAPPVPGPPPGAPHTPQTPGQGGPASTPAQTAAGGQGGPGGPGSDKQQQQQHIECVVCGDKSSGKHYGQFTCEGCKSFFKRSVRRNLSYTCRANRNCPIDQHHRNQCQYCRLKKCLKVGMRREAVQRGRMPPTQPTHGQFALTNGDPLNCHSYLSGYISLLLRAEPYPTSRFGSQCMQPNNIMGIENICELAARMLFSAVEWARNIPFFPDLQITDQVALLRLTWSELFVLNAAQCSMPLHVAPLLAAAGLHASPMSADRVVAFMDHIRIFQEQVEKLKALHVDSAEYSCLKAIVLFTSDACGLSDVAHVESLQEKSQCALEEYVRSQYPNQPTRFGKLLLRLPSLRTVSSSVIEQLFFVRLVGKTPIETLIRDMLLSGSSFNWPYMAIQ

[4] = target: T4, cysteines in MDA-MB-231 and Ramos cells (Homo sapiens, UniProt Q8WV74)
T4 sequence (Q8WV74 1-236): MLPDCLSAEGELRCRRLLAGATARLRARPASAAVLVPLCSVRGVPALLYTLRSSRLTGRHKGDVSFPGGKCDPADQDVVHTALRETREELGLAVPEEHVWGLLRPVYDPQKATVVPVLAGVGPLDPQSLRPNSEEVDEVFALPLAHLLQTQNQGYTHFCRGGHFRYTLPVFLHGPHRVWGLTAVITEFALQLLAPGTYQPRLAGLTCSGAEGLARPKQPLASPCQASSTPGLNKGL

[5] = target: cysteines in MDA-MB-231 and Ramos cells (Homo sapiens, UniProt P04818)
[6] = target: T5, cysteines in MDA-MB-231 and Ramos cells (Homo sapiens, UniProt Q96EB1)
T5 sequence (Q96EB1 1-424): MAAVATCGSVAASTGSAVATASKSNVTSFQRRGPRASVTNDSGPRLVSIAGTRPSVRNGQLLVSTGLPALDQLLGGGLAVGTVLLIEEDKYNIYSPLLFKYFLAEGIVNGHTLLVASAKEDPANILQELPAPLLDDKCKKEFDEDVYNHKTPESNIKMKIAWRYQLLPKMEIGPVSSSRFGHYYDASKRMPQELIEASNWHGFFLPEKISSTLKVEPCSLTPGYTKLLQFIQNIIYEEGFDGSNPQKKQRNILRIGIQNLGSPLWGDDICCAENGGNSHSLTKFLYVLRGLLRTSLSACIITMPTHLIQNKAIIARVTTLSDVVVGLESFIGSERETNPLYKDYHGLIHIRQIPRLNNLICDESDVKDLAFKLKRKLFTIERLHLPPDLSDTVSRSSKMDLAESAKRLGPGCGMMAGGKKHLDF

[7] = target: T6, cysteines in MDA-MB-231 and Ramos cells (Homo sapiens, UniProt Q15013)
T6 sequence (Q15013 1-274): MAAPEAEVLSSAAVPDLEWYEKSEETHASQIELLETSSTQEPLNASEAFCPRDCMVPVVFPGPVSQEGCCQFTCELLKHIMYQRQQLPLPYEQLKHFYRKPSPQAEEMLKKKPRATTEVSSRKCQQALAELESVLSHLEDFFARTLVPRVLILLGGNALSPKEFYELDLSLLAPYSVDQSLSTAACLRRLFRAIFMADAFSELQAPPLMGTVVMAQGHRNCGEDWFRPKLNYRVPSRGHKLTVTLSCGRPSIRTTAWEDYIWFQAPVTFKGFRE

[8] = target: T7, cysteines in MDA-MB-231 and Ramos cells (Homo sapiens, UniProt P53384)
T7 sequence (P53384 1-320): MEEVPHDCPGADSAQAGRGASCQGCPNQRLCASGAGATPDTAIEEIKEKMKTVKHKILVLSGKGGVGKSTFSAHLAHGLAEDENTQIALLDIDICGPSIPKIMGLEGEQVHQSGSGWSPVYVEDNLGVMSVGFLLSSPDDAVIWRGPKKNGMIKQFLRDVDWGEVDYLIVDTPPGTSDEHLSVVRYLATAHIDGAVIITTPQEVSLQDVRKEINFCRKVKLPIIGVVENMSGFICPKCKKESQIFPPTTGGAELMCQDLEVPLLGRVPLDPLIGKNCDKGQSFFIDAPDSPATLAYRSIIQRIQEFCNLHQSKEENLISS

[9] = target: cysteines in MDA-MB-231 and Ramos cells (Homo sapiens, UniProt Q00765)
[10] = target: T8, cysteines in MDA-MB-231 and Ramos cells (Homo sapiens, UniProt O00244)
T8 sequence (O00244 1-68): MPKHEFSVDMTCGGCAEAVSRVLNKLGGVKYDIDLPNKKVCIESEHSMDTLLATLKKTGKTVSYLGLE

[11] = target: cysteines in MDA-MB-231 and Ramos cells (Homo sapiens, UniProt P51812)
cysteines in MDA-MB-231 and Ramos cells (Homo sapiens, UniProt P51812), sequence (P51812 whole entry): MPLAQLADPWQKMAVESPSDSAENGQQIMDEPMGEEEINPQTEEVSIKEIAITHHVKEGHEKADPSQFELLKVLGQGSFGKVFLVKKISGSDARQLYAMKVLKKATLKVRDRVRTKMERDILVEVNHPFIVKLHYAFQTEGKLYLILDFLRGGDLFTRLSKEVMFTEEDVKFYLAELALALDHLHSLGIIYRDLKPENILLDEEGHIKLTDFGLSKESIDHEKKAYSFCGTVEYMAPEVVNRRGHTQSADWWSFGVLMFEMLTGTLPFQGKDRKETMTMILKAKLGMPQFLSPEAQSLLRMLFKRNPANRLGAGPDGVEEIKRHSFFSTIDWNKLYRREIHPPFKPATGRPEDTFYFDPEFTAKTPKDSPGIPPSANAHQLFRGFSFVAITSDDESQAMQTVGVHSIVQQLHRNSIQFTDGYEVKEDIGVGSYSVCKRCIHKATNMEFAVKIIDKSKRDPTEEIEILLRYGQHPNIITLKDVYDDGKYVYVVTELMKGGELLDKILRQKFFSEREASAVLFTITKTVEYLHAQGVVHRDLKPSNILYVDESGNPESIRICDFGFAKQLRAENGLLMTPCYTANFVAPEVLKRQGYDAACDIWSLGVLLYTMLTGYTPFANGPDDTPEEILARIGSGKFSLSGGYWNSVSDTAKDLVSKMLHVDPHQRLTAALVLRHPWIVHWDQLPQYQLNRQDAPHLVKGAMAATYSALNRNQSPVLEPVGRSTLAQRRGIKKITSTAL

cysteines in MDA-MB-231 and Ramos cells (Homo sapiens, UniProt P04818), sequence (P04818 whole entry): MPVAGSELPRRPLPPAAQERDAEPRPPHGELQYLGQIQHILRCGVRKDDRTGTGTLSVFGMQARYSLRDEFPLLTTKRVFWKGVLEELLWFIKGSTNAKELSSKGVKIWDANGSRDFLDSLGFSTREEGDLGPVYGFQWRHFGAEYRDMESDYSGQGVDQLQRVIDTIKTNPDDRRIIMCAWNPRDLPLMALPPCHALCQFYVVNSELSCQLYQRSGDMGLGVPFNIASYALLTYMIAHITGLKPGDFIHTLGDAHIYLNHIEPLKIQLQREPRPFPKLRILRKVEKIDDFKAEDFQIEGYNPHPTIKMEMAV
cysteines in MDA-MB-231 and Ramos cells (Homo sapiens, UniProt Q00765), sequence (Q00765 whole entry): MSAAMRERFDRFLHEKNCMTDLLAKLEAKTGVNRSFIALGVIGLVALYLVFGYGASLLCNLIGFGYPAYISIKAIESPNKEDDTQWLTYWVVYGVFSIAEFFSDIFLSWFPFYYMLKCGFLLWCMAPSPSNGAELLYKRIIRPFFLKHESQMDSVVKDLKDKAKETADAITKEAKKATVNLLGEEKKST

SMILES: COc1ccc(C2CC(c3cccs3)=NN2C(=O)CCl)cc1 (stereo not shown) [compound 4]
isoTOP-ABPP reactivity Q96EB1_C218 ELP4 ([6]; 100 μM in situ 231): 20.0
isoTOP-ABPP reactivity Q9NX18_C83 SDHAF2 ([1]; 100 μM in situ 231): 3.0
isoTOP-ABPP reactivity P24468_C326 NR2F2 ([3]; 100 μM in situ 231): 20.0
isoTOP-ABPP reactivity Q15013_C124 MAD2L1BP ([7]; 100 μM in situ 231): 13.0
isoTOP-ABPP reactivity P53384_C235 NUBP1 ([8]; 100 μM in situ 231): 0.6
isoTOP-ABPP reactivity Q8WV74_C207 NUDT8 ([4]; 100 μM in situ 231): 20.0
isoTOP-ABPP reactivity P04818_C199 TYMS ([5]; 100 μM in situ 231): 20.0
isoTOP-ABPP reactivity Q00765_018 REEP5 ([9]; 100 μM in situ 231): 20.0

SMILES: COc1cc2c(cc1OC)CN(C(=O)CCl)CC2 [compound 8]
isoTOP-ABPP reactivity Q6ICB0_C108 DESII ([2]; 200 μM, insitu, 231): 20.0
isoTOP-ABPP reactivity P24468_C326 NR2F2 ([3]; 200 μM, insitu, 231): 20.0
isoTOP-ABPP reactivity Q15013_C124 MAD2L1BP ([7]; 200 μM, insitu, 231): 5.4
isoTOP-ABPP reactivity P53384_C235 NUBP1 ([8]; 200 μM, insitu, 231): 0.6
isoTOP-ABPP reactivity Q8WV74_C207 NUDT8 ([4]; 200 μM, insitu, 231): 20.0
isoTOP-ABPP reactivity Q00765_018 REEP5 ([9]; 200 μM, insitu, 231): 2.7

SMILES: COc1ccccc1OCCNC(=O)CCl [compound 28]
isoTOP-ABPP ratio Q15013_C124 ([7]; 200 μM, insitu, 231): 1.0

SMILES: C=CC(=O)N(Cc1cccnc1)c1cc(C(F)(F)F)cc(C(F)(F)F)c1 [compound 31]
isoTOP-ABPP ratio Q6ICB0_C108 ([2]; 200 μM, insitu, 231): 1.2
isoTOP-ABPP ratio Q6ICB0_C108 ([2]; 200 μM, insitu, ramos): 1.3
isoTOP-ABPP ratio P53384_C235 ([8]; 200 μM, insitu, 231): 0.7

SMILES: O=C(CCl)Nc1cccc2ncccc12 [compound 51]
isoTOP-ABPP ratio Q9NX18_C83 ([1]; 200 μM, insitu, 231): 1.0
isoTOP-ABPP ratio Q6ICB0_C108 ([2]; 200 μM, insitu, 231): 1.1
isoTOP-ABPP ratio Q15013_C124 ([7]; 200 μM, insitu, 231): 1.2
isoTOP-ABPP ratio P04818_C199 ([5]; 200 μM, insitu, 231): 20.0

More lines, main results first:

isoTOP-ABPP reactivity Q9NX18_C83 SDHAF2 ([1]; 200 μM, insitu, 231): 3.1
isoTOP-ABPP reactivity Q6ICB0_C108 DESII ([2]; 200 μM, insitu, 231): 20.0
isoTOP-ABPP reactivity P24468_C326 NR2F2 ([3]; 200 μM, insitu, 231): 20.0
isoTOP-ABPP reactivity Q8WV74_C207 NUDT8 ([4]; 200 μM, insitu, 231): 20.0
isoTOP-ABPP reactivity P04818_C199 TYMS ([5]; 200 μM, insitu, 231): 20.0
SMILES: COc1ccc2c(c1)CCCN2C(=O)CCl [compound 2]

isoTOP-ABPP reactivity Q96EB1_C218 ELP4 ([6]; 200 μM, insitu, 231): 8.4
isoTOP-ABPP reactivity P53384_C235 NUBP1 ([8]; 200 μM, insitu, 231): 6.8
isoTOP-ABPP reactivity P51812_C436 RPS6KA3 ([11]; 200 μM, insitu, 231): 2.1
SMILES: O=C(CCl)N1CCC(Cc2ccccc2)CC1 [compound 9]
isoTOP-ABPP reactivity O00244_C12 ATOX1 ([10]; 200 μM, insitu, 231): 4.7

isoTOP-ABPP ratio Q9NX18_C83 ([1]; 100 μM in situ 231): 1.1
isoTOP-ABPP ratio Q6ICB0_C108 ([2]; 100 μM in situ 231): 0.7
isoTOP-ABPP ratio, cysteine P24468_C326 ([3]; 100 μM in situ 231): 0.9
isoTOP-ABPP ratio, cysteine Q15013_C124 ([7]; 100 μM in situ 231): 1.0
isoTOP-ABPP ratio, cysteine O00244_C12 ([10]; 100 μM in situ 231): 0.7
isoTOP-ABPP ratio, cysteine P51812_C436 ([11]; 100 μM in situ 231): 0.5
isoTOP-ABPP ratio Q00765_C18 ([9]; 100 μM in situ 231): 0.8
SMILES: Cn1cc(S(=O)(=O)N2CCOCC2)cc1C(=O)NC(=O)CCl [compound 11]

isoTOP-ABPP ratio Q96EB1_C218 ([6]; 200 μM, insitu, ramos): 1.1
isoTOP-ABPP ratio Q9NX18_C83 ([1]; 200 μM, insitu, ramos): 1.9
isoTOP-ABPP ratio Q6ICB0_C108 ([2]; 200 μM, insitu, ramos): 1.0
isoTOP-ABPP ratio O00244_C12 ([10]; 200 μM, insitu, ramos): 1.4
isoTOP-ABPP ratio P51812_C436 ([11]; 200 μM, insitu, ramos): 1.3
isoTOP-ABPP ratio P04818_C199 ([5]; 200 μM, insitu, ramos): 2.5
isoTOP-ABPP ratio Q00765_C18 ([9]; 200 μM, insitu, ramos): 1.4
SMILES: O=C(CCl)N1CCN(CC(=O)N2CCOCC2)CC1 [compound 29]

isoTOP-ABPP ratio P24468_C326 ([3]; 200 μM, insitu, 231): 0.8
isoTOP-ABPP ratio P53384_C235 ([8]; 200 μM, insitu, 231): 0.2
isoTOP-ABPP ratio Q8WV74_C207 ([4]; 200 μM, insitu, 231): 0.9
isoTOP-ABPP ratio P51812_C436 ([11]; 200 μM, insitu, 231): 4.5
isoTOP-ABPP ratio P04818_C199 ([5]; 200 μM, insitu, 231): 0.7
SMILES: Cc1ccc(C=C(C#N)C(=O)NCCN2CCOCC2)cc1 [compound 41]

isoTOP-ABPP ratio Q96EB1_C218 ([6]; 200 μM, insitu, 231): 20.0
isoTOP-ABPP ratio Q9NX18_C83 ([1]; 200 μM, insitu, 231): 3.7
isoTOP-ABPP ratio Q6ICB0_C108 ([2]; 200 μM, insitu, 231): 3.1
isoTOP-ABPP ratio P24468_C326 ([3]; 200 μM, insitu, 231): 20.0
isoTOP-ABPP ratio Q15013_C124 ([7]; 200 μM, insitu, 231): 20.0
isoTOP-ABPP ratio Q8WV74_C207 ([4]; 200 μM, insitu, 231): 20.0
isoTOP-ABPP ratio P04818_C199 ([5]; 200 μM, insitu, 231): 20.0
isoTOP-ABPP ratio Q00765_C18 ([9]; 200 μM, insitu, 231): 20.0
SMILES: CC1CCc2ccccc2N1C(=O)CCl (stereo not shown) [compound 45]
